Source: patent publication US20050124618A1, “Methods of modulating angiogenesis and cancer cell proliferation” (priority 2003, published 2005)
Entries after “also recorded” stand apart in the source; their conditions may differ.

Experiments:
20-HETE [1] = conditions: cited from earlier work
VEGF = experiment: Western blot of VEGF protein expression in TA muscle; assay type: in vivo, rat
Method: Western blot analysis to detect the presence of VEGF protein: The 100-mg TA muscle specimens were homogenized, and the protein was suspended in potassium buffer (10 mM). Five micrograms of protein (as determined by a protein assay kit, Bio-Rad; Hercules, Calif.) from the TA and a tumor cell line known to express VEGF at high levels (C6, American Type Culture Collection, 107-CCL) were separated on a 12% denaturing polyacrylamide gel. The gels were transferred to a nitrocellulose membrane, which was blocked overnight in 5% nonfat dry milk diluted in Tris-buffered saline (50 mM Tris and 750 mM NaCl, pH 8) with 0.08% Tween 20 (Bio-Rad). The blots were then incubated with a […] antibody to a peptide derived from the human VEGF sequence (1:1,000 dilution, clone G143-850, Pharmingen) for 2 h at room temperature. Washed blots were then incubated with goat anti-mouse secondary antibody at a dilution of 1:1,000 for 1 h at room temperature and then subjected to a SuperSignal West Dura chemiluminescence substrate (Pierce; Rockford, Ill.) detection system. Membranes were exposed to X-ray film (Fuji Medical; Stamford, Conn.) for 15 to 30 s and developed using a Kodak M35 X-Omat processor. For the quantitative VEGF analysis, film was always exposed for a period of time that ensured that all signals were within the linear range of the detection of the film. The VEGF band intensity was quantified using a morphometry imaging system (Metamorph, Universal Imaging; West Chester, Pa.), and values are expressed as a percentage of the C6 tumor cell standard.

20-HETE [2] = experiment: 20-HETE formation in electrically stimulated skeletal (TA) muscle of rats; assay type: in vivo, rat; conditions: 7 days of electrical stimulation; chronic treatment
Method: (§1) Experimental protocols and tissue preparation: After a 24-h recovery period, the implanted stimulator was activated by momentary closure of the magnetic reed switch using a small hand-held magnet. […] Contractions of the extensor digitorum longus (EDL) and tibialis anterior (TA) muscles were automatically initiated at 9 AM each day and sustained for 8 h/day over a consecutive 7-day period. At the end of the stimulation period, the animals were euthanized by an overdose of pentobarbital sodium (100 mg/kg ip), and the EDL and TA muscles were harvested for analysis as previously described (Greene A S et al., Hypertension 15: 779-783, 1990; and Parmentier J H et al., Hypertension 37: 623-629, 2001).
The rats were divided in four groups. […] This dose was chosen based on our previous results (Kehl F et al., Am J Physiol Heart Circ Physiol 282: H1556-H1565, 2002).
To determine the contribution of VEGF to the angiogenesis induced by electrical stimulation, six rats in group 3 were treated with 3 mg/kg ip injections of a monoclonal VEGF-neutralizing antibody (Texas Biotechnology; Houston, Tex.) during the period of electrical stimulation. The protocol for administration of VEGF-neutralizing antibody was modified from Zheng W et al. (Circ Res 85: 192-198, 1999), and this dose was based on our previous results (Amaral S L et al., Microcirculation 8: 57-67, 2001). After the stimulation period was started, the rats received intraperitoneal injections on days 3, 5, and 7 (0.6 mg/100 g).
Muscle preparations for measurement of 20-HETE: The 100-200 mg of frozen TA muscle were homogenized in a solution containing 1 ml of acidified water and 50 μl of an internal standard, WIT-002, which was synthesized and kindly provided by Taisho Pharmaceutical. Ethyl acetate (3 ml, Fisher Scientific; Pittsburgh, Pa.) was added to the mixture and gently vortexed. The homogenized tissues were then centrifuged at 3,000 revolutions/min for 2 min. With the use of a glass Pasteur pipet, the top layer was removed and transferred to a sterile glass vial, and the samples were dried under nitrogen and stored at −80° C.
Labeling of samples and fluorescent detection of 20-HETE: Detection of 20-HETE was performed as previously described (Ma Y H et al., Am J Physiol Regul Integr Comp Physiol 267: R579-R589, 1994). Samples, which were extracted and dried under argon, were resuspended in 20 μl of acetonitrile containing 36.4 mM 2-(2,3-napthalimino)ethyl trifluoromethanesulfonate, and N,N-diisopropylethylamine (10 μl) was added as a catalyst. The sample was reacted for 30 min at room temperature, dried under argon, resuspended in 1 ml of 40% acetonitrile-water, and applied to a Sep-Pak Vac column. The column was washed with 6 ml of 50% acetonitrile-water solution to remove unreacted dye, eluted with 500 μl of ethyl acetate, dried under argon, and resuspended in 100 μl of the HPLC mobile phase [methanol-water-acetic acid, 82:18:0.1 (vol/vol)]. A 25-μl aliquot of the derivatized sample was separated on a 4.6×250-mm Symmetry C18 reverse-phase HPLC column (Waters) isocratically at a rate of 1.3 ml/min using methanol-water-acetic acid (82:18:0.1 (vol/vol)) as the mobile phase. Fluorescence intensity monitored using an in-line fluorescence detector (model number L-7480, Hitachi; Naperville, Ill.) at medium gain sensitivity. The amount of 20-HETE in the sample was determined by comparing the area of the 20-HETE peak with that of the internal standard (WIT-002).

[3] = tested on: extensor digitorum longus (EDL) and tibialis anterior (TA) muscles; experiment: Vessel density of EDL and TA muscles after 7 days of electrical stimulation; assay type: in vivo, rat
Method: as §1
Tissue harvest and morphological analysis of vessel density: The stimulated and contralateral muscles were removed, weighed, and rinsed in physiological salt solution. A 300-mg sample was taken from the rostral portion of the TA muscle and frozen in liquid nitrogen for Western blot (100 mg) and HPLC (200 mg) analysis for measurement of VEGF protein expression and 20-HETE formation, respectively. The remaining TA and EDL muscles were lightly fixed in a 0.25% formalin solution overnight. The muscles were sectioned via a manual microtome to a thickness of about 100 μm by securing the tendons and slicing parallel to the longitudinal orientation of the muscle fibers. From every animal, two slices of each EDL muscle and three slices of each TA muscle were made. The slices were than immersed for 2 h in a solution of 25 μg/ml rhodamine-labeled Griffonia simplicifolia I (GS-I) lectin (Sigma; St. Louis, Mo. (Greene A S et al., Hypertension 15: 779-783, 1990)). Immediately after this 2-h exposure to GS-I lectin, the muscles were rinsed in physiological solution. The rinsing procedure was repeated after 15 and 30 min, and the muscles were rinsed in physiological saline solution for 12 h (overnight, at 4° C.). On the next day, the slices were mounted on microscope slides with a water-soluble mounting medium consisting of toluene and acrylic resin (SP ACCU-MOUNT 280, Baxter Scientific).
The labeled sections were visualized using a video fluorescent microscope system (Olympus ULWD CD Plan, ×20 objective, 1.6 cm working distance and 0.4 numerical aperture) with epi-illumination, as previously described (Parmentier J H et al., Hypertension 37: 623-629, 2001). In the present study, 10-15 and 20-25 representative fields were selected for study from each EDL and TA muscle slice, respectively. Each field was converted to a digitized image (DT2801 Data Translation; Marlboro, Mass.) and stored as an 8-bit/pixel image file with a resolution of 512×512 pixels. Morphometric analysis of the scanned histochemical sections was done as previously described (Parmentier J H et al., Hypertension 37: 623-629, 2001).
Data analysis and statistics: For each muscle, the vessel counts of all the selected fields (10-15 scans×2 slices for each EDL muscle; 20-25 scans×3 slices for each TA muscle) were averaged to a single vessel density. Vessel density was expressed in terms of the mean number of vessel-grid intersections per microscope field (0.224 mm^2). For each experimental group, the measured vessel density and 20-HETE formation of the stimulated muscle was compared with its unstimulated counterpart as well as with age-matched controls. All values are presented as means±SE. The significance of differences in values measured in the same animal was evaluated using a two-factor ANOVA (drug×stimulation) with repeated measures on one factor (stimulation). Significant differences were further investigated using a post hoc test (Tukey's).

[4] = chronic treatment, 7 days electrical stimulation

Question: With `Nn1nnc2ccccc21` [ABT, 1-aminobenzotriazole] as the molecule, how does the “ability to reduce 20-HETE levels in vivo” value (20-HETE [1]) read?
Answer: reduce 20-HETE levels in vivo

Question: What about the “effect on increases in VEGF protein expression induced by electrical stimulation” value (VEGF; 7 days stimulation) of the same molecule?
Answer: did not block

Question: And the “effect on baseline VEGF expression” value (VEGF; 7 days treatment)?
Answer: Neither HET0016 nor ABT had any effect

Question: And the “effect on the increase of 20-HETE formation induced by electrical stimulation” value (20-HETE [2])?
Answer: blocked

Question: What about the “effect on the increase in vessel density (angiogenesis) induced by electrical stimulation” value ([3]; 7 days, HET0016 2 mg kg−1 day−1, ABT 50 mg kg−1 day−1) of the same molecule?
Answer: blocked; also recorded: attenuated

Question: What about the “vessel density, EDL, unstimulated side” value ([3]; chronic treatment, 7 days) of the same molecule?
Answer: 111±7.4 number of vessel intersections

Question: What about the “vessel density, TA, unstimulated side” value ([3]; chronic treatment, 7 days) of the same molecule?
Answer: 99.7±4.72 number of vessel intersections

Question: What about the “vessel density, EDL, stimulated side” value [3, 4] of the same molecule?
Answer: 121±4.35 number of vessel intersections

Question: What about the “vessel density, TA, stimulated side” value [3, 4] of the same molecule?
Answer: 119.5±4.51 number of vessel intersections
